Measurements: patent publication US8377473B2, “Slow release magnesium composition and uses thereof” (Magceutics, Inc., priority 2009, dated 2013)

Legend:
[1] = system: rats; experiment: Margin of safety: incidence of diarrhea with magnesium preparations in drinking water; details: elemental magnesium via drinking water for 4 days, non-linear regression
Protocol: Animals: Adult male Sprague-Dawley rats were obtained from Wei Tong Li Hua Beijing, China. Rats were individually-housed with free access to standard food and water under a 12:12 h reversed light-dark cycle, with light onset at 8:00 p.m. […] All experimental procedures were approved by the Tsinghua University Committees on Animal Care.
(Magceutics Inc., USA), Magnesium chloride and glycinate (Modern Eastern Fine Chemical, China), magnesium gluconate and citrate (Sigma-Aldrich, Germany). Lactose was obtained from Biobasic Inc (Beijing, China).
The magnesium dose dissolved in the daily intake volume of water was determined based on intake of ˜30 ml/day/rat. Animals were supplied with the magnesium supplemented drinking water for 4 days, after which time the number of animals that developed diarrhea was monitored and calculated as a percentage of the total number of animals in the respective group.
(§1) Statistical analysis: All data were approximated with a normal distribution. […] One-way analysis of variance was used to analyze the cerebrospinal fluid data. GraphPad prism was used for data analysis (version 5.00, GraphPad software Inc.).

[2] = Magnesium content in the cerebrospinal fluid; details: 24 days of treatment, approximately 50 mg/kg/day elemental magnesium via drinking water
Excerpt: as §1

[3] = cited from earlier work
[4] = system: diabetic patients; details: nearly 1 g of magnesium daily for 1 month; cited from earlier work
[5] = system: rats; details: young and aged rats, cited from earlier work

[Cl-].[Cl-].[Mg+2] [magnesium chloride]
TD50 (toxic dose required to induce diarrhea in 50% of animals) [1]: 90.0 mg/kg/day | magnesium concentration in cerebrospinal fluid ([Mg2+]CSF) [2]: relatively limited effect

[O]=[Mg] [magnesium oxide]
magnesium absorption rate ([3]; Firoz and Graber 2001): about 4% | bioavailability ([3]; Ranade and Somberg 2001): 4% | increase of serum magnesium level [4]: about 10% | metabolic control [4]: only minor improvement | cognitive function ([5]; food containing 2% magnesium oxide for 8 days): some sign of improvement | side-effect ([5]; food containing 2% magnesium oxide): diarrhea and weight loss

magnesium gluconate
TD50 (toxic dose required to induce diarrhea in 50% of animals) [1]: 99.7 mg/kg/day
